Measured values as given in ChEMBL document CHEMBL1144969, “Structure-based design of thioether-bridged cyclic phosphopeptides binding to Grb2-SH2 domain” (Bioorg Med Chem Lett, 2003).
Starred links: 1 amine or outer side, 2 acyl side, 3 side chain; linkers in the order of their positions; H or OH if unused. Positions of bridges follow the written chain, without caps; N, C: chain ends. Non-standard residues stand in square brackets, D forms with d. Residues, ends and D or L forms follow the SMILES beside them. pY = N[C@@H](Cc1ccc(OP(=O)(O)O)cc1)C(=O)O; tBuAla = CC(C)(C)C[C@H](N)C(=O)O; X1 = O=C(C[*:2])NCCC(=O)[*:1]; hCys = N[C@@H](CCS)C(=O)O; Ac6c = NC1(C(=O)O)CCCCC1

biological target: Growth factor receptor-bound protein 2 (Homo sapiens, UniProt P62993); assay: Inhibition of Growth factor receptor-bound protein 2 (Grb2) SH2 domain binding by ELISA

IC50 [nM] | Compound
8.26 | CSCC[C@@H]1NC(=O)CNC(=O)[C@H](C(C)C)NC(=O)[C@H](CC(N)=O)NC(=O)[C@H](CCC(=O)O)NC(=O)[C@H](Cc2ccc(OP(=O)(O)O)cc2)NC(=O)[C@H](CC(C)C)NC(=O)CCNC(=O)CSC[C@@H](C(N)=O)NC(=O)[C@H](Cc2ccc(O)cc2)NC1=O (L[pY]ENVGMYC-NH2; linker N-9 via X1)
25.3 | CSCC[C@@H]1NC(=O)CNC(=O)[C@H](C(C)C)NC(=O)[C@H](CC(N)=O)NC(=O)[C@H](CCC(=O)O)NC(=O)[C@H](Cc2ccc(OP(=O)(O)O)cc2)NC(=O)[C@H](CC(C)C)NC(=O)[C@H](C)NC(=O)CSC[C@@H](C(N)=O)NC(=O)[C@H](Cc2ccc(O)cc2)NC1=O ({CH2CO}-AL[pY]ENVGMYC-NH2; thioether N-10)
54.7 | CSCC[C@@H]1NC(=O)CNC(=O)[C@H](C(C)C)NC(=O)[C@H](CC(N)=O)NC(=O)[C@H](CCC(=O)O)NC(=O)[C@H](Cc2ccc(OP(=O)(O)O)cc2)NC(=O)[C@H](CC(C)C)NC(=O)[C@H](C)NC(=O)CSCC[C@@H](C(N)=O)NC(=O)[C@H](Cc2ccc(O)cc2)NC1=O ({CH2CO}-AL[pY]ENVGMY[hCys]-NH2; thioether N-10)
137 | CSCC[C@@H]1NC(=O)CNC(=O)[C@H](C(C)C)NC(=O)[C@H](CC(N)=O)NC(=O)[C@H](CCC(=O)O)NC(=O)[C@H](Cc2ccc(OP(=O)(O)O)cc2)NC(=O)[C@H](CC(C)C)NC(=O)[C@H](CCC(=O)O)NC(=O)CSC[C@@H](C(N)=O)NC(=O)[C@H](Cc2ccc(O)cc2)NC1=O ({CH2CO}-EL[pY]ENVGMYC-NH2; thioether N-10)
31.5 | CSCC[C@@H]1NC(=O)CNC(=O)[C@H](C(C)C)NC(=O)[C@H](CC(N)=O)NC(=O)[C@H](CCC(=O)O)NC(=O)[C@H](Cc2ccc(OP(=O)(O)O)cc2)NC(=O)[C@H](CC(C)C)NC(=O)CNC(=O)CSC[C@@H](C(N)=O)NC(=O)[C@H](Cc2ccc(O)cc2)NC1=O ({CH2CO}-GL[pY]ENVGMYC-NH2; thioether N-10)

The next lines start with the compound.

Compound | IC50 [nM]
CSCC[C@@H]1NC(=O)CNC(=O)[C@H](C(C)C)NC(=O)[C@H](CC(N)=O)NC(=O)C2(CCCCC2)NC(=O)[C@H](Cc2ccc(OP(=O)(O)O)cc2)NC(=O)[C@H](CC(C)C)NC(=O)CCNC(=O)CSC[C@@H](C(N)=O)NC(=O)[C@H](Cc2ccc(O)cc2)NC1=O (L[pY][Ac6c]NVGMYC-NH2; linker N-9 via X1) | 21
CC(C)[C@@H]1NC(=O)[C@H](CC(N)=O)NC(=O)C2(CCCCC2)NC(=O)[C@H](Cc2ccc(OP(=O)(O)O)cc2)NC(=O)[C@H](Cc2ccccc2)NC(=O)[C@H](C)NC(=O)CSC[C@@H](C(N)=O)NC(=O)[C@H](Cc2ccc(O)cc2)NC(=O)[C@H](CC(C)(C)C)NC(=O)CNC1=O ({CH2CO}-AF[pY][Ac6c]NVG[tBuAla]YC-NH2; thioether N-10) | 1.68
CC(C)C[C@@H]1NC(=O)[C@H](C)NC(=O)CSC[C@@H](C(N)=O)NC(=O)[C@H](Cc2ccc(O)cc2)NC(=O)[C@H](CC(C)(C)C)NC(=O)CNC(=O)[C@H](C(C)C)NC(=O)[C@H](CC(N)=O)NC(=O)[C@H](CCC(=O)O)NC(=O)[C@H](Cc2ccc(OP(=O)(O)O)cc2)NC1=O ({CH2CO}-AL[pY]ENVG[tBuAla]YC-NH2; thioether N-10) | 14.5
CC(C)C[C@@H]1NC(=O)[C@H](C)NC(=O)CSC[C@@H](C(N)=O)NC(=O)[C@H](Cc2ccc(O)cc2)NC(=O)[C@H](C)NC(=O)CNC(=O)[C@H](C(C)C)NC(=O)[C@H](CC(N)=O)NC(=O)C2(CCCCC2)NC(=O)[C@H](Cc2ccc(OP(=O)(O)O)cc2)NC1=O ({CH2CO}-AL[pY][Ac6c]NVGAYC-NH2; thioether N-10) | 13.3
CSCC[C@@H]1NC(=O)CNC(=O)[C@H](C(C)C)NC(=O)[C@H](CC(N)=O)NC(=O)C2(CCCCC2)NC(=O)[C@H](Cc2ccc(OP(=O)(O)O)cc2)NC(=O)[C@H](CC(C)C)NC(=O)[C@H](C)NC(=O)CSC[C@@H](C(N)=O)NC(=O)[C@H](Cc2ccc(O)cc2)NC1=O ({CH2CO}-AL[pY][Ac6c]NVGMYC-NH2; thioether N-10) | 3.77
CSCC[C@@H]1NC(=O)CNC(=O)[C@H](C(C)C)NC(=O)[C@H](CC(N)=O)NC(=O)[C@H](CCC(=O)O)NC(=O)[C@H](Cc2ccc(OP(=O)(O)O)cc2)NC(=O)[C@H](CC(C)C)NC(=O)[C@@H]2CCCN2C(=O)CSC[C@@H](C(N)=O)NC(=O)[C@H](Cc2ccc(O)cc2)NC1=O ({CH2CO}-PL[pY]ENVGMYC-NH2; thioether N-10) | 75.7
CC(C)C[C@@H]1NC(=O)[C@@H]2CCCN2C(=O)CSC[C@@H](C(N)=O)NC(=O)[C@H](Cc2ccc(O)cc2)NC(=O)[C@H](CC(C)(C)C)NC(=O)CNC(=O)[C@H](C(C)C)NC(=O)[C@H](CC(N)=O)NC(=O)C2(CCCCC2)NC(=O)[C@H](Cc2ccc(OP(=O)(O)O)cc2)NC1=O ({CH2CO}-PL[pY][Ac6c]NVG[tBuAla]YC-NH2; thioether N-10) | 7.65
